Experimental data reported in patent US20150005381A1, “METHOD FOR MODULATING STEM CELL GROWTH” (SUCAMPO AG, priority 2008, published 2015).

Key:
[1] = test system: nigro-striatal dopaminergic neurons of MPTP-treated mice; assay: Effect on impaired dopaminergic neurons in MPTP-treated mice (TH immunostaining); assay type: in vivo, male C57BL/6 mice; details: Day 8; for Area of TH-positive immunostained fibers in striatum, mean ± S.E. / TH-positive immunostained cells in substantia nigra, mean ± S.E.: MPTP-treated mice
Method: The effect of Compound A (11-deoxy-13,14-dihydro-15-keto-16,16-difluoro-PGE1) on impaired neuron was tested. 1-methyl-4-phenyl-1,2,3,6-tetrahydropyridine hydrochloride (MPTP) was intraperitoneally administered to male C57BL/6 mice aged 10 weeks at 15 mg/kg/dose 4 times a day with an approximately 3-hour interval between doses for 2 days (experimental Day 1 and Day 2) to destroy the dopaminergic neuron in the brain. On the day following the final MPTP administration (on Day 3), some MPTP-treated mice were sacrificed to estimate the severity of degeneration and loss of nigro-striatal dopamine neurons by measuring the area of tyrosine hydroxylase (TH)-positive immunostained fibers in striatum. Other MPTP-treated mice were orally administered Compound A (11-deoxy-13,14-dihydro-15-keto-16,16-difluoro-PGE1) or the vehicle twice a day for 5 days (from Day 3 to Day 7) starting from the day following the final MPTP administration. The mice were decapitated on the day following the final administration of Compound A or the vehicle (on Day 8), and the whole brain was removed by incision of the skull, and placed into Bouin's fluid (pH 3.5-4.0). The brain section at the level of striatum (0.74 mm anterior to bregma) and substantia nigra (3.08 mm posterior to bregma) was cut out. After dehydration, the paraffin embedding of the slices was employed. Sections (about 6 μm thick) were prepared out of each of the slices at Bregma 0.74 mm and Bregma −3.08 mm, and the sections were used for TH immunostaining. The number of TH-positive immunostained cells in the right substantia nigra compacta (SNC) at Bregma −3.08 mm was counted by visual observation using an optical microscope OLYMPUS BH-2 (Olympus Corp.) with a ×20 microscope objective. For measuring the area of TH-positive immunostained fibers in striatum, an image obtained with an optical microscope OLYMPUS BH-2 (Olympus Corp.) with a ×40 microscope objective of TH-positive immunostained fibers in the right caudate putamen (CPu) at Bregma 0.74 mm was incorporated into a computer through OLYMPUS MCD-350, and the area of TH-positive fibers larger than 5 μm^2 was measured using an image analyzer Win ROOF (V5.6, Mitani Corp.), and expressed in term of an area of 1 mm^2.

[2] = test system: full-thickness excisional wound in diabetic mice; assay: Excisional wound healing in diabetic mice; assay type: in vivo, female diabetic (BKS.Cg-+Lepr^db/+Lepr^db/Jcl) mice; details: ointment, Table 3
Method: The effect of Compound A (11-deoxy-13,14-dihydro-15-keto-16,16-difluoro-PGE1) on excisional wound healing was tested. A full-thickness excisional wound (1.5×1.5 cm) was made on the back of female diabetic (BKS.Cg-+Lepr^db/+Lepr^db/Jcl) mice at the age of 12 weeks. The excisional wound was covered with the perforated film dressing. Each test ointment was put into a 1-mL disposable polypropylene syringe to which a 21G hypodermic needle is attached, and 0.1 mL of the test ointment was applied to the wound by sticking the hypodermic needle into the film dressing, which covers the excisional wound. The application was performed once a day for 21 days starting from the day when the excisional wound was made; the day when the excisional wound was made was defined as Day 1. For histological examination, the skin including the excisional wound was obtained from animals treated with each test ointment for 6 days, and was served for immunostaining with antibody against Ki67, a marker protein of proliferating cells. The outline of each excisional wound was traced before application (Day 1) and Days 6, 8, 11, 13, 15, 18, 20, and 22 of administration. The traced excisional wound area was measured with an area-line meter. […]

[3] = Compound A 0.1 mg/kg orally twice a day for 5 days
[4] = Compound A 1 mg/kg orally twice a day for 5 days

CCCCC(F)(F)C(=O)CCC1CCC(=O)C1CCCCCCC(=O)O (stereo not shown) [Compound A, 11-deoxy-13,14-dihydro-15-keto-16,16-difluoro-PGE1]
Mean area of TH-positive fibers in the striatum compared to MPTP+Vehicle (control) group ([1]; 0.1 mg/kg and 1 mg/kg groups): significantly greater mean area of TH-positive fibers in the striatum
Number of TH-positive immunostained cells in the substantia nigra, trend in words ([1]; 0.1 and 1 mg/kg orally): increased the number of TH-positive immunostained cells in the substantia nigra in a dose-dependent manner
Area of TH-positive immunostained fibers in striatum, mean ± S.E. [1, 3]: 0.0465 ± 0.0102 mm2
TH-positive immunostained cells in substantia nigra, mean ± S.E. [1, 3]: 35.2 ± 5.0 Number of cells
Area of TH-positive immunostained fibers in striatum, mean ± S.E. [1, 4]: 0.0444 ± 0.0092 mm2
TH-positive immunostained cells in substantia nigra, mean ± S.E. [1, 4]: 44.4 ± 5.0 Number of cells
Skin wound healing, in words [2]: accelerated skin wound healing
